The target in one assay is T1, CDK2/cyclin A2 (Homo sapiens, UniProt P24941).
T1 construct: purchased Carna Biosciences, Inc. QS S Assist CDK2/Cyclin A2_FP Kit
The experiment in a line: Human CDK2/cyclin A2 inhibitory activity (QS S Assist CDK2/Cyclin A2_FP Kit, IMAP fluorescent polarization). The assay is classed as biochemical. Conditions: read-out: CDK2 Activity symbol. The protocol: Human CDK2/Cyclin A2 Inhibitory Activity
Each compound was analyzed for CDK2/cyclin A2 inhibitory activity with an assay kit (QS S Assist CDK2/Cyclin A2_FP Kit, available from Carna Biosciences, Inc.). This assay kit determines kinase activity on the basis of the IMAP technology by Molecular Devices. Specifically, the kinase activity is determined through quantification of a variation in fluorescent polarization caused by binding of a kinase-phosphorylated fluorescent substance to an IMAP-binding reagent.
An assay buffer was prepared by 10-fold dilution of the 10× assay buffer attached to the kit with distilled water, and each solution was prepared with the assay buffer. The assay buffer contained 20 mM HEPES (pH 7.4), 0.01% Tween 20, and 2 mM dithiothreitol. A test compound solution was prepared by dilution of the test compound with dimethyl sulfoxide (DMSO) to a concentration 100 times higher than the final concentration and then 25-fold dilution with the assay buffer to a concentration four times higher than the final concentration. An ATP/substrate/Metal solution was prepared by five-fold dilution of the 5×ATP/substrate/Metal solution attached to the kit with the assay buffer. An enzyme solution was prepared by dilution of the CDK2/cyclin A2 attached to the kit with the assay buffer to a concentration twice higher than the final concentration (final concentration of CDK2/cyclin A2: 2.5 ng/well). A detection reagent was prepared by five-fold dilution of 5×IMAP-binding buffer A with distilled water and 400-fold dilution of the IMAP-binding reagent with the diluted buffer.
(§1) The test compound solution (5 μL/well) and the ATP/substrate/Metal solution (5 μL/well) were added to a 384-well plate, and the enzyme solution or the assay buffer (10 μL/well) was added to the plate (total amount of the reaction mixture: 20 μL/well) for initiation of enzymatic reaction. […] The reaction was performed at room temperature for 60 minutes, and the detection reagent (60 μL/well) was then added to the plate, followed by further reaction for 30 minutes at room temperature under light shielding conditions. Subsequently, fluorescent polarization was determined with a microplate reader at an excitation wavelength of 485 nm and an emission wavelength of 535 nm.
The percent inhibition of enzyme activity was calculated for each test compound (note: enzyme activity=100% in the case of addition of the enzyme solution and addition of DMSO instead of the test compound solution, whereas enzyme activity […] in the case of addition of the assay buffer instead of the enzyme solution and addition of DMSO instead of the test compound solution). The percent inhibition of enzyme activity was fitted to a dose-response curve, to determine a 50% inhibitory concentration against CDK2/cyclin A2.
In each table, “+++” corresponds to IC50<10 nM, “++” 10 nM≤IC50<100 nM, and “+” 100 nM≤IC50.

The next assay deals with T2, CDK4/cyclin D3 (Homo sapiens, UniProt P11802).
T2 construct: purchased Carna Biosciences, Inc. QS S Assist CDK4/Cyclin D3_FP Kit
T2 sequence (P11802 whole entry): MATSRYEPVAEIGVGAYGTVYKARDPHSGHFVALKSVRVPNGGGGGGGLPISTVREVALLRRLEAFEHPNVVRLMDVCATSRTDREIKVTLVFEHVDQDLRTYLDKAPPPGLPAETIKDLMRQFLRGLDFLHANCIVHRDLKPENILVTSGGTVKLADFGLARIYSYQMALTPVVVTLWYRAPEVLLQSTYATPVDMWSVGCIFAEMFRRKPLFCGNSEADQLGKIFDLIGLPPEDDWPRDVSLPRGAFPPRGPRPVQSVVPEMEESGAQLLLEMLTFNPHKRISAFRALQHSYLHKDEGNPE
T2 sequence (P30281 whole entry partner): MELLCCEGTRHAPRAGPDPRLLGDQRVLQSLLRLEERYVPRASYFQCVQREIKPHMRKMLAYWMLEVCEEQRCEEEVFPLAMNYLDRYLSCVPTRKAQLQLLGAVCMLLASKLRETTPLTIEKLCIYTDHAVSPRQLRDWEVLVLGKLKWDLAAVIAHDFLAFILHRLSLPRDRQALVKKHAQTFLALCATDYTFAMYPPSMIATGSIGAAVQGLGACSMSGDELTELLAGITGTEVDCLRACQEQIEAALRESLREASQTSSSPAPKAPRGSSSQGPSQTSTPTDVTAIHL
The experiment in a line: Human CDK4/cyclin D3 inhibitory activity (QS S Assist CDK4/Cyclin D3_FP Kit, IMAP fluorescent polarization). The assay is classed as biochemical. Conditions: read-out: CDK4 Activity symbol. The procedure:
Human CDK4/Cyclin D3 Inhibitory Activity
Each compound was analyzed for CDK4/cyclin D3 inhibitory activity with an assay kit (QS S Assist CDK4/Cyclin D3_FP Kit, available from Carna Biosciences, Inc.). This assay kit determines kinase activity on the basis of the IMAP technology by Molecular Devices. Specifically, the kinase activity is determined through quantification of a variation in fluorescent polarization caused by binding of a kinase-phosphorylated fluorescent substance to an IMAP-binding reagent.
Each solution was prepared with the 10× assay buffer attached to the kit or a separately prepared assay buffer having the same composition as the assay buffer attached to the kit. An assay buffer was prepared by 10-fold dilution of the 10× assay buffer with distilled water. The assay buffer contains 20 mM HEPES (pH 7.4), 0.01% Tween20, and 2 mM dithiothreitol. A test compound solution was prepared by dilution of the test compound with dimethyl sulfoxide (DMSO) to a concentration 100 times higher than the final concentration and then 25-fold dilution with the assay buffer to a concentration four times higher than the final concentration. An ATP/substrate/Metal solution was prepared by five-fold dilution of the 5×ATP/substrate/Metal solution attached to the kit with the assay buffer. An enzyme solution was prepared by dilution of the CDK4/cyclin D3 attached to the kit with the assay buffer to a concentration twice higher than the final concentration (final concentration of CDK4/cyclin D3: 12.5 to 25 ng/well). A detection reagent was prepared by five-fold dilution of each of 5×IMAP-binding buffer A and 5×IMAP-binding buffer B with distilled water, mixing of IMAP-binding buffer A with IMAP-binding buffer B at a ratio of 85:15, and 400-fold dilution of the IMAP-binding reagent with the mixed buffer.
as §1, with “for 45” for “for 60”
The percent inhibition of enzyme activity was calculated for each test compound (note: enzyme activity=100% in the case of addition of the enzyme solution and addition of DMSO instead of the test compound solution, whereas enzyme activity […] in the case of addition of the assay buffer instead of the enzyme solution, and addition of DMSO instead of the test compound solution). The percent inhibition of enzyme activity was fitted to a dose-response curve, to determine a 50% inhibitory concentration against CDK4/cyclin D3.
In each table, “+++” corresponds to IC50<10 nM. “++” 10 nM […] IC50<100 nM, and “+” 100 nM≤IC50.

Regarding `CN1CCN(c2ccc(Nc3ncc4cc(CO)nc(N5CCOCC5)c4n3)nc2)CC1` [Compound 1], the IC50 on CDK2/cyclin A2 is ≥ 100 nM; at CDK4/cyclin D3, < 10 nM.

Consider `CN1CCN(c2ccc(Nc3ncc4cc(CO)nc(N5CCCCC5)c4n3)nc2)CC1` [Compound 2], for which the IC50 at CDK2/cyclin A2 was ≥ 100 nM; at CDK4/cyclin D3, < 10 nM. The corresponding values for `CN1CCN(c2ccc(Nc3ncc4cc(CO)nc(N5CCCCC5=O)c4n3)nc2)CC1` [Compound 3] are ≥ 100 nM and ≥ 100 nM. `CN1CCN(c2ccc(Nc3ncc4cc(C(F)F)nc(N5CCOCC5)c4n3)nc2)CC1` [Compound 4]: the figures for the IC50 on CDK2/cyclin A2 and at CDK4/cyclin D3 were ≥ 100 nM and 10 to 100 nM, respectively. For `CN1CCN(c2ccc(Nc3ncc4cc(CO)nc(C5CCCCC5)c4n3)nc2)CC1` [Compound 5] the same measures were ≥ 100 nM and < 10 nM. For `CN1CCN(c2ccc(Nc3ncc4cc(CO)nc(-c5ccccc5)c4n3)nc2)CC1` [Compound 6] the same measures were ≥ 100 nM and < 10 nM. For the compound `OCc1cc2cnc(Nc3ccc(N4CCNCC4)cn3)nc2c(N2CCOCC2)n1` [Compound 7], the IC50 was ≥ 100 nM at CDK2/cyclin A2 and < 10 nM on CDK4/cyclin D3. For `FC(F)c1cc2cnc(Nc3ccc(N4CCNCC4)cn3)nc2c(N2CCOCC2)n1` [Compound 8], the IC50 is ≥ 100 nM at CDK2/cyclin A2 and 10 to 100 nM at CDK4/cyclin D3. With `OCc1cc2cnc(Nc3ccc(N4CCNCC4)cn3)nc2c(N2CCCCC2)n1` [Compound 9], the IC50 on CDK4/cyclin D3 is < 10 nM. In the case of `OCc1cc2cnc(Nc3ccc(N4CCNCC4)cn3)nc2c(-c2ccccc2)n1` [Compound 10], at CDK4/cyclin D3, the IC50 lay within 10 to 100 nM. `FC(F)c1cc2cnc(Nc3ccc(N4CCNCC4)cn3)nc2c(N2CCCCC2)n1` [Compound 11]: at CDK4/cyclin D3, the IC50 was < 10 nM. Take `FC(F)c1cc2cnc(Nc3ccc(N4CCNCC4)cn3)nc2c(-c2ccccc2)n1` [Compound 12]: the IC50 on CDK4/cyclin D3 was < 10 nM. Same read-out and setting: for `CN1CCN(c2ccc(Nc3ncc4cc(C(F)F)nc(N5CCCCC5)c4n3)nc2)CC1` [Compound 13] the value was < 10 nM.

`Cc1ccc(-c2nc(CO)cc3cnc(Nc4ccc(N5CCNCC5)cn4)nc23)cc1` [Compound 14]: on CDK4/cyclin D3, the IC50 is < 10 nM.

`Cc1ccccc1-c1nc(CO)cc2cnc(Nc3ccc(N4CCNCC4)cn3)nc12` [Compound 15]: on CDK4/cyclin D3, the IC50 was 10 to 100 nM. Turning to `OCc1cc2cnc(Nc3ccc(N4CCNCC4)cn3)nc2c(-c2ccsc2)n1` [Compound 16], the IC50 at CDK4/cyclin D3 is < 10 nM. On the same count and under the same terms, under `OCc1cc2cnc(Nc3ccc(N4CCNCC4)cn3)nc2c(-c2ccoc2)n1` [Compound 17] stands 10 to 100 nM; under `Cc1ccc(-c2nc(CO)cc3cnc(Nc4ccc(N5CCN(C)CC5)cn4)nc23)cc1` [Compound 18], < 10 nM. For `Cc1ccccc1-c1nc(CO)cc2cnc(Nc3ccc(N4CCN(C)CC4)cn3)nc12` [Compound 19], the IC50 at CDK4/cyclin D3 is < 10 nM.

Consider `CN1CCN(c2ccc(Nc3ncc4cc(CO)nc(-c5ccsc5)c4n3)nc2)CC1` [Compound 20], for which the IC50 at CDK4/cyclin D3 was < 10 nM. Still for that read-out and setting: for `CN1CCN(c2ccc(Nc3ncc4cc(CO)nc(-c5ccoc5)c4n3)nc2)CC1` [Compound 21] the value was 10 to 100 nM; for `CN1CCN(c2ccc(Nc3ncc4cc(CO)nc(C5=CCCCC5)c4n3)nc2)CC1` [Compound 22], < 10 nM; for `O=C(O)c1cc2cnc(Nc3ccc(N4CCNCC4)cn3)nc2c(N2CCCCC2)n1` [Compound 23], ≥ 100 nM. With `CC(O)c1cc2cnc(Nc3ccc(N4CCNCC4)cn3)nc2c(N2CCCCC2)n1` (stereo not drawn) [Compound 24], the IC50 at CDK2/cyclin A2 is ≥ 100 nM; on CDK4/cyclin D3 it was < 10 nM. In the case of `COC(=O)c1cc2cnc(Nc3ccc(N4CCNCC4)cn3)nc2c(N2CCCCC2)n1` [Compound 25], the IC50 on CDK2/cyclin A2 was ≥ 100 nM; at CDK4/cyclin D3, 10 to 100 nM.

With `CC(=O)c1cc2cnc(Nc3ccc(N4CCNCC4)cn3)nc2c(N2CCCCC2)n1` [Compound 26], the IC50 on CDK2/cyclin A2 was ≥ 100 nM; at CDK4/cyclin D3, 10 to 100 nM.

Take `CN(C)C(=O)c1cc2cnc(Nc3ccc(N4CCNCC4)cn3)nc2c(N2CCCCC2)n1` [Compound 27]: the IC50 at CDK2/cyclin A2 was ≥ 100 nM; on CDK4/cyclin D3 it was 10 to 100 nM.

For the compound `NC(=O)c1cc2cnc(Nc3ccc(N4CCNCC4)cn3)nc2c(N2CCCCC2)n1` [Compound 28], the IC50 is ≥ 100 nM on CDK2/cyclin A2 and 10 to 100 nM on CDK4/cyclin D3.

For the compound `CNC(=O)c1cc2cnc(Nc3ccc(N4CCNCC4)cn3)nc2c(N2CCCCC2)n1` [Compound 29], the figures for the IC50 on CDK2/cyclin A2 and on CDK4/cyclin D3 were ≥ 100 nM and 10 to 100 nM, respectively. Regarding `Cc1ccccc1-c1nc(C(F)F)cc2cnc(Nc3ccc(N4CCNCC4)cn3)nc12` [Compound 30], the IC50 was ≥ 100 nM at CDK2/cyclin A2 and < 10 nM on CDK4/cyclin D3.

Take `COCc1cc2cnc(Nc3ccc(N4CCNCC4)cn3)nc2c(N2CCOCC2)n1` [Compound 32]: the IC50 is ≥ 100 nM at CDK2/cyclin A2 and 10 to 100 nM at CDK4/cyclin D3.

As for `Cc1c(CO)nc(N2CCOCC2)c2nc(Nc3ccc(N4CCNCC4)cn3)ncc12` [Compound 33], the IC50 is ≥ 100 nM at CDK2/cyclin A2 and < 10 nM on CDK4/cyclin D3. With `CCC(O)c1cc2cnc(Nc3ccc(N4CCNCC4)cn3)nc2c(N2CCOCC2)n1` (stereo not drawn) [Compound 34], the IC50 at CDK2/cyclin A2 was ≥ 100 nM; on CDK4/cyclin D3 it was 10 to 100 nM. With `OC(c1cc2cnc(Nc3ccc(N4CCNCC4)cn3)nc2c(N2CCOCC2)n1)C(F)(F)F` (stereo not drawn) [Compound 35, 2,2,2-trifluoro-1-(8-morpholino-2-((5-(piperazin-1-yl)pyridin-2-yl)amino)pyrido[3,4-d]pyrimidin-6-yl)ethanol], the IC50 at CDK2/cyclin A2 was ≥ 100 nM; at CDK4/cyclin D3, 10 to 100 nM. For `CC(F)(F)c1cc2cnc(Nc3ccc(N4CCNCC4)cn3)nc2c(N2CCOCC2)n1` [Compound 36], the IC50 at CDK2/cyclin A2 and on CDK4/cyclin D3 was ≥ 100 nM in each case. Take `COC(C)c1cc2cnc(Nc3ccc(CN4CCNCC4)cn3)nc2c(N2CCCCC2)n1` (stereo not drawn) [Compound 43]: at CDK4/cyclin D3, the IC50 was < 10 nM. In the case of `COC(C)c1cc2cnc(Nc3ccc(CN4CCNCC4)cn3)nc2c(N2CCC3CCNC3C2)n1` (stereo not drawn) [Compound 44], at CDK4/cyclin D3, the IC50 was < 10 nM. Regarding `COC(C)c1cc2cnc(Nc3ccc(CN4CCNCC4)cn3)nc2c(N2CCC(CO)CC2)n1` (stereo not drawn) [Compound 45], the IC50 at CDK4/cyclin D3 is < 10 nM. Still for that read-out and setting: under `COCC1CCN(c2nc(C(C)OC)cc3cnc(Nc4ccc(CN5CCNCC5)cn4)nc23)CC1` (stereo not drawn) [Compound 46] stands < 10 nM; under `CC(O)c1cc2cnc(Nc3ccc(CN4CCN(C)CC4)cn3)nc2c(N2CCOCC2C)n1` (stereo not drawn) [Compound 291], < 10 nM.
